In assay [1] the test system is ANGPTL4 gene expression. The experiment in a line: ANGPTL4 gene expression in C2C12 cells by Affymetrix micro-arrays. It is filed as cell-based. As to conditions: C2C12 mouse muscle cells, 20 hours, vs control = 1.00.
Protocol: Cell culture: C2C12 cells (ATCC: CRL1772)
Cells were cultured in DMEM (5 mM glucose) supplemented with 10% heat-inactivated fetal calf serum (FCS). Complete medium was filtered through 0.2 μm pores before use. Differentiation was performed in 6 well dishes by serum depleting the medium (DMEM High Glucose, 2% FCS) when cells reach confluency. Cell cultures were then incubated for 5 days at 37° C. in a 90%-humidified and 95%-air-5%-CO2 sterile atmosphere to allow differentiation.
PPAR Ligands were dissolved in 100% DMSO and added to medium to adjust 0.1% (v/v) DMSO final concentration and cells were incubated with ligands for 20 hours under normal growth conditions. Three replicates were done for each condition.
RNA extraction procedure has been performed with Qiagen QIAschredder and RNeasy kits.
Approximately 1*106 pelleted cells per sample were resuspended in 350 μl guanidine thiocyanate containing RLT. Samples were loaded on a QIAshredder-column and centrifuged at full speed for 2 minutes to homogenize the lysates. After adding 350 μl ethanol to the flow-through for better binding conditions, samples were applied to RNeasy spin. For the first wash step 350 μl RW1 buffer were pipeted into the column. Then 10 μL DNase solution gently mixed with 70 μl RDD buffer were applied onto the column and incubated for 15 minutes at room temperature to remove genomic DNA. […]
For assay [2], the system named is ANGPTL4 gene expression. Nature of the assay: ANGPTL4 gene expression in C2C12 cells by qPCR. It is filed as cell-based. As to conditions: C2C12 mouse muscle cells, S12 reference, vs control = 1. In general terms: Real-time PCR tracks product formation cycle by cycle.
Protocol: The culturing of the C2C12 mouse muscle cells, RNA extraction, cDNA synthesis and purifications were performed as described in Example 1.
RT-PCR was performed with the Quantitech SYBR Green kit from Qiagen according to the manufacturer's manual. Each component were added to 96 well plate: 25 μl master mix, 0.16 μl of each primer (100 μM stock solution), 22.7 μl H2O and 2 μl cDNA.
The program consists of three different steps: initial denaturation of template and heat-activation of the Taq DNA polymerase (95° C., 15 min), cycling (95° C. denaturation, 60° C. primer-template annealing, 72° C. elongation, fluorescence aquisition), and final melting (melting curve 55 to 95° C., measurements in 0.5° C. steps).
The relative quantification is based on the relative expression of the target gene versus a reference gene. […] The cycle number at which threshold fluorescence is reached, is called ct value. […] The relative ct value of a target gene compared to the ct value of an internal reference in the control or untreated sample is expressed as Δct.control=ctreference of control−cttarget of control and in a treated, unknown sample as Δct.sample=ctreference of sample−cttarget of sample.
As internal reference for quantitative studies the ribosomal protein S12 gene expression was used. […] Setting of fluorescence threshold is determined by the light cycler software. The obtained ct values (duplicates for one sample, two samples per condition) were exported into Microsoft Excel and analyzed as described above.

`Cc1nc(-c2ccc(C(F)(F)F)cc2)sc1C(Sc1ccc(OCC(=O)O)c2ccccc12)C1CCCC1` (racemic) [C, [rac]-(4-{Cyclopentyl-[4-methyl-2-(4-trifluoromethyl-penyl)-thiazol-5-yl]-methylsulfanyl}-naphtalen-1-yloxy}-acetic]: the “ANGPTL4 gene expression fold changes” value in assay [1] (500 nM) is 8.87 fold; in assay [2] (500 nM), 10.06 fold.

As for `CC(C)(Oc1ccc(C(=O)c2ccc(Cl)cc2)cc1)C(=O)O` [A, 2-[4-(4-Chlorobenzoyl)-phenoxy]-2-methylpropanoic acid], the results for the “ANGPTL4 gene expression fold changes” value in assay [1] (300 μM) and in assay [2] (300 μM) were 1.99 fold and 2.61 fold, respectively. On to `Cc1cc(N(C)Cc2sc(-c3ccc(C(F)(F)F)cc3)nc2C)ccc1OCC(=O)O` [D, (2-Methyl-4-{Methyl-[4-methyl-2-(4-trifluoromethyl-phenyl)-thiazol-5-ylmethyl]-amino}-phenoxy)-acetic acid], for which, in assay [2] (500 nM), the “ANGPTL4 gene expression fold changes” value is given as 13.51 fold.

These data come from patent publication US20050233361A1, “PPARdelta assay” (priority 2004, published 2005).
